Drawing on PubChem BioAssay (NCI), this text covers GI50 and TGI for eight compounds.

Test systems include SNB-75 CNS; DU-145 prostate; NCI-H226 lung; SN12C renal; HCT-116 colon; SF-268 CNS; TK-10 renal; MCF7 breast; OVCAR-4 ovarian; T-47D breast.
What all share (experiment): NCI anticancer screen, dose series, 48 h

Structures are written as SMILES. Where “and” joins values, the source holds several entries; their conditions need not be identical. Identical values can stand only once.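 These data come from cells grown in 96-well plates and exposed to compound for 48 hours at five concentrations. GI50 = concentration required for 50% inhibition of growth. TGI: total growth inhibition.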 Bounds are passed on as bounds.

On to `COc1ccc2c(c1)[nH]c(=O)c1c3cccc(F)c3cn21`, for which the GI50 with SNB-75 CNS was 0.0262 µM; in the assay with DU-145 prostate, 0.0696 µM; with NCI-H226 lung it was 12.1 µM; in the assay with SN12C renal, 0.0828 µM; in the assay on HCT-116 colon, 0.0458 µM; in the assay with SF-268 CNS, 0.0749 µM. Also, the GI50 was 9.55 µM with TK-10 renal, 0.22 µM in the assay with MCF7 breast, 0.126 µM in the assay with OVCAR-4 ovarian and 42.1 µM in the assay with T-47D breast. Also, the TGI with SNB-75 CNS was 5.44 µM; in the assay with DU-145 prostate, greater than 100 µM; in the assay with NCI-H226 lung, 44.7 µM; in the assay with SN12C renal, 24.4 µM; with HCT-116 colon, 13.9 µM; in the assay with SF-268 CNS, 44.7 µM. Further, the TGI is greater than 100 µM in the assay with TK-10 renal, greater than 94.6 µM in the assay with MCF7 breast, 28.8 µM with OVCAR-4 ovarian and greater than 100 µM in the assay on T-47D breast.
On to `CCc1ccc(CCC(=O)Nc2ncc(Cc3ccc(Cl)cc3)s2)o1`, for which the GI50 is 0.195 µM in the assay with SNB-75 CNS; 0.329 µM with DU-145 prostate; 0.753 µM in the assay with SN12C renal; 0.427 µM with HCT-116 colon; 1.68 µM with SF-268 CNS; 0.328 µM with MCF7 breast. For the same compound, the GI50 in the assay with OVCAR-4 ovarian was greater than 100 µM; in the assay on T-47D breast, 1.48 µM. Moreover, the TGI was 0.771 µM in the assay with SNB-75 CNS; greater than 100 µM in the assay on DU-145 prostate; greater than 100 µM with NCI-H226 lung; greater than 100 µM in the assay with SN12C renal; greater than 100 µM with HCT-116 colon; greater than 100 µM in the assay with SF-268 CNS. In addition, the TGI in the assay on TK-10 renal, with MCF7 breast, in the assay with OVCAR-4 ovarian and with T-47D breast was greater than 100 µM each time.
As to `O=S(=O)(NNc1ccccc1)c1ccccc1`, the TGI with SNB-75 CNS is greater than 100 µM; with DU-145 prostate, 34.3 µM; in the assay on NCI-H226 lung, 18.5 µM; with SN12C renal it was 18.7 µM; with HCT-116 colon, 29.4 µM; with SF-268 CNS, greater than 100 µM. The TGI with TK-10 renal is greater than 100 µM; with MCF7 breast, 28.8 µM; in the assay with OVCAR-4 ovarian, 31.5 µM; in the assay on T-47D breast, 51.5 µM.
In the case of `CC(C)(C)C1CCC2c3c([nH]c4ccccc34)C3C(=O)N(c4ccc(Cl)cc4)C(=O)C3C2C1` (stereo unspecified), the GI50 was greater than 100 µM in the assay with SNB-75 CNS; greater than 100 µM in the assay on DU-145 prostate; 72.8 µM and > 10 µM in the assay on NCI-H226 lung; 37.4 µM and > 10 µM in the assay with SN12C renal; 65.3 µM and > 10 µM with HCT-116 colon; 53.9 µM and > 10 µM with SF-268 CNS. Besides, the GI50 in the assay on TK-10 renal is greater than 100 µM; with OVCAR-4 ovarian, 59.5 µM and > 10 µM; with T-47D breast it was 60.9 µM and > 10 µM. Also, the TGI with SNB-75 CNS, in the assay with DU-145 prostate, in the assay on NCI-H226 lung, with SN12C renal, in the assay on HCT-116 colon and with SF-268 CNS was greater than 100 µM each time. Moreover, the TGI in the assay on TK-10 renal was greater than 100 µM; with MCF7 breast it was 99.6 µM; in the assay on OVCAR-4 ovarian, greater than 100 µM; with T-47D breast it was greater than 100 µM.
On to `Nc1ccc(C2=CC(c3ccc(Cl)cc3)N3C=CSC3=N2)cc1` (stereo unspecified), for which the GI50 in the assay on SNB-75 CNS is 5.29 µM; with DU-145 prostate it was 5.11 µM; in the assay on NCI-H226 lung it was 9.36 µM; in the assay with SN12C renal, 6.4 µM; in the assay on HCT-116 colon, 1.66 µM; with SF-268 CNS, 11.3 µM. The GI50 in the assay on TK-10 renal was 11 µM; in the assay on MCF7 breast it was 1.22 µM; in the assay with OVCAR-4 ovarian it was 13 µM; with T-47D breast it was 4.76 µM. Also, the TGI with SNB-75 CNS was 22.8 µM; with DU-145 prostate, 16.9 µM; in the assay with NCI-H226 lung, greater than 100 µM; in the assay with SN12C renal it was 26.9 µM; with HCT-116 colon it was 3.2 µM; in the assay with SF-268 CNS, 30.7 µM. The TGI in the assay on TK-10 renal was 28.5 µM; with MCF7 breast, 4.52 µM; with OVCAR-4 ovarian it was greater than 100 µM; in the assay on T-47D breast, 27.7 µM.
On to `CCC(C)[C@H](NC(=O)Nc1cc(C(F)(F)F)cc(C(F)(F)F)c1)C(=O)N[C@@H](Cc1cn(C)cn1)C(=O)OC` (stereo partly specified), for which the GI50 in the assay with SNB-75 CNS was 0.924 µM; in the assay on DU-145 prostate it was 1.07 µM; in the assay with NCI-H226 lung, 0.571 µM; in the assay on SN12C renal, 0.544 µM; in the assay with HCT-116 colon it was 0.606 µM; in the assay with SF-268 CNS, 0.61 µM. In addition, the GI50 with TK-10 renal was 3.65 µM; in the assay on MCF7 breast it was 0.513 µM; with OVCAR-4 ovarian it was 0.599 µM; with T-47D breast it was 0.912 µM. The TGI in the assay on SNB-75 CNS was 1.82 µM; with DU-145 prostate it was 1.83 µM; in the assay on NCI-H226 lung it was 1.29 µM; with SN12C renal, 1.05 µM; with HCT-116 colon, 1.21 µM; in the assay with SF-268 CNS, 1.16 µM. The TGI in the assay with MCF7 breast turned out to be 1.08 µM; in the assay with OVCAR-4 ovarian it was 1.12 µM; in the assay with T-47D breast, 1.74 µM.
Take `CC1=C(c2ccccc2)C(O)(c2ccccc2)C(C)C1=O` (stereo unspecified): the GI50 in the assay with SNB-75 CNS was 10.7 µM; in the assay with DU-145 prostate, 27.2 µM; in the assay with NCI-H226 lung it was 33.4 µM; with SN12C renal it was 15.4 µM; in the assay on HCT-116 colon it was 9.95 µM; in the assay with SF-268 CNS, 27.4 µM. In addition, the GI50 in the assay with TK-10 renal was 30.1 µM; in the assay on MCF7 breast, 13 µM; with OVCAR-4 ovarian, 24.3 µM; in the assay on T-47D breast it was 23.1 µM. Also, the TGI with SNB-75 CNS is 42.8 µM; in the assay on DU-145 prostate, greater than 100 µM; in the assay with NCI-H226 lung, greater than 100 µM; in the assay with SN12C renal, greater than 100 µM; in the assay with HCT-116 colon it was greater than 100 µM; with SF-268 CNS, greater than 100 µM. In addition, the TGI in the assay with TK-10 renal, in the assay with MCF7 breast, with OVCAR-4 ovarian and in the assay with T-47D breast was greater than 100 µM each time.
`CCN(CC)CCCNc1cc(OC)cc2nc3cc(Cl)ccc3nc12`: the GI50 in the assay with SNB-75 CNS was 1.7 µM; with DU-145 prostate, 2.53 µM; in the assay with NCI-H226 lung, 1.48 µM; with SN12C renal, 1.09 µM; with HCT-116 colon, 0.508 µM; with SF-268 CNS it was 1.62 µM. For the same compound, the GI50 with TK-10 renal is 1.85 µM; in the assay with MCF7 breast, 1.5 µM; in the assay with OVCAR-4 ovarian, 1.67 µM; in the assay with T-47D breast it was 6.62 µM. For the same compound, the TGI is 4.35 µM with SNB-75 CNS; 12.4 µM in the assay with DU-145 prostate; 3.76 µM with NCI-H226 lung; 14.5 µM with SN12C renal; 3.63 µM in the assay with HCT-116 colon; 8.26 µM in the assay on SF-268 CNS. Also, the TGI in the assay with TK-10 renal was 5.8 µM; in the assay with MCF7 breast, 6.51 µM; in the assay on OVCAR-4 ovarian, 3.51 µM; in the assay with T-47D breast it was 20.7 µM.
